Converted amounts (≈) assume the structure as drawn.

Here are results for eight molecules from paper PMC7712541, “Seven New Cytotoxic and Antimicrobial Xanthoquinodins from Jugulospora vestita” (Journal of Fungi, 2020).

In series [1] the test system is Bacillus subtilis. The series can be described thus: MIC, antibacterial test. Type of series: cell-based. The note with it: read-out: Minimum inhibitory concentration (MIC). The protocol:
(§1) Compounds were tested for their antimicrobial activity against […] fungi (Candida albicans, Mucor hiemails, Pichia anomala, Rhodotorula glutinis and Schizosaccharomyces pombe), four different Gram-positive bacteria (Bacillus subtilis, Micrococcus luteus, Mycobacterium smegmatis and Staphylococcus aureus), and three Gram-negative bacteria (Chromobacterium violaceum, Escherichia coli and Pseudomonas aeruginosa), using oxytetracycline as a positive control against Gram-positive and Gram-negative bacteria, while nystatin was used as an antifungal positive control. Besides, cytotoxicities of the compounds against seven mammalian cell lines (human endocervical adenocarcinoma KB 3.1, breast cancer MCF-7, lung cancer A549, ovary cancer SK-OV-3, prostate cancer PC-3, squamous cancer A431, and mouse fibroblasts L929) were determined by the microculture tetrazolium test (MTT) method, using epothilon B as the positive control. Both bioactivity assays were performed following our standard protocols.

Series [2] has as its system Micrococcus luteus. The series can be described thus: MIC, antibacterial test. The note with it: read-out: Minimum inhibitory concentration (MIC). Type of series: cell-based. The method, then: as §1
Series [3] relates to Staphylococcus aureus. The series can be described thus: MIC, antibacterial test. Format: cell-based. The note with it: read-out: Minimum inhibitory concentration (MIC). The protocol:
as §1

The test system of series [4] is Mucor hiemalis. Kind of series: MIC, antifungal test. Particulars: for MIC: read-out: Minimum inhibitory concentration (MIC). Type of series: cell-based. The arrangement: key to Minimum inhibitory concentration (MIC): –: no inhibition observed under test conditions. The method, then: as §1
Series [5] has as its system Schizosaccharomyces pombe. The series can be described thus: MIC, antifungal test. Type of series: cell-based. The arrangement: key to Minimum inhibitory concentration (MIC): –: no inhibition observed under test conditions. The protocol: as §1
Series [6] relates to Pichia anomala. Kind of series: MIC, antifungal test. Format: cell-based. On the set-up: key to Minimum inhibitory concentration (MIC): –: no inhibition observed under test conditions. The protocol: as §1
In series [7] the test system is Candida albicans. The series can be described thus: MIC, antifungal test. Type of series: cell-based. On the set-up: key to Minimum inhibitory concentration (MIC): –: no inhibition observed under test conditions. The protocol:
as §1

The test system of series [8] is Rhodotorula glutinis. The series can be described thus: MIC, antifungal test. Type of series: cell-based. The arrangement: key to Minimum inhibitory concentration (MIC): –: no inhibition observed under test conditions. The protocol: as §1
Series [9] deals with KB 3.1, L929, A549, SK-OV-3, PC-3, A431, and MCF-7 mammalian cell lines. The series can be described thus: Cytotoxicity, summary over all tested cell lines. Type of series: cell-based. Particulars: seven mammalian cell lines; read-out: IC50 values, range over all tested cell lines. The protocol: as §1
The nature of series [10]: Cytotoxicity, MTT method. The method, then: as §1
For orientation: Tetrazolium assays rely on reduction of a dye to a coloured formazan, in cell work by metabolically active cells.

Series [11] concerns Mycobacterium smegmatis. Kind of series: MIC, antibacterial test. Format: cell-based. The arrangement: key: –: no inhibition observed under test conditions. The method, then: as §1
The test system of series [12] is Pseudomonas aeruginosa. The series can be described thus: MIC, antibacterial test. Type of series: cell-based. On the set-up: key to Minimum inhibitory concentration (MIC): –: no inhibition observed under test conditions. The method, then: as §1
The test system of series [13] is Escherichia coli. The series can be described thus: MIC, antibacterial test. Format: cell-based. On the set-up: key to Minimum inhibitory concentration (MIC): –: no inhibition observed under test conditions. The method, then:
as §1

The subject of series [14] is Chromobacterium violaceum. Kind of series: MIC, antibacterial test. On the set-up: key to Minimum inhibitory concentration (MIC): –: no inhibition observed under test conditions. Format: cell-based. The protocol:
as §1

Series [15] relates to NCI-H187 and Vero. On the set-up: method as in PMID 29677644. Particulars: cited from earlier work.
The test system of series [16] is Al. brassicicola, Co. gloeosporioides, Co. truncatum, Cu. lunata and Py. grisea. On the set-up: method as in PMID 29677644. Particulars: cited from earlier work.
For series [17], the system named is lung cancer A549. The series can be described thus: Cytotoxicity, MTT method. Particulars: read-out: Cytotoxicity, half maximal inhibitory concentration (IC50); A549, MTT. The protocol:
as §1

Series [18] has as its system mouse fibroblasts L929. The series can be described thus: Cytotoxicity, MTT method. The note with it: read-out: Cytotoxicity, half maximal inhibitory concentration (IC50); L929, MTT. The protocol:
as §1

Series [19] has as its system prostate cancer PC-3. The series can be described thus: Cytotoxicity, MTT method. Particulars: read-out: Cytotoxicity, half maximal inhibitory concentration (IC50); PC-3, MTT. The protocol: as §1
Series [20] concerns MCF-7 human breast cancer cells. Kind of series: Cytotoxicity, MTT method. Particulars: read-out: Cytotoxicity, half maximal inhibitory concentration (IC50); MCF-7, MTT. The method, then:
as §1

In series [21] the test system is ovary cancer SK-OV-3. Kind of series: Cytotoxicity, MTT method. The note with it: read-out: Cytotoxicity, half maximal inhibitory concentration (IC50); SK-OV-3, MTT. The protocol:
as §1

Series [22] concerns human endocervical adenocarcinoma KB 3.1. The series can be described thus: Cytotoxicity, MTT method. The note with it: read-out: Cytotoxicity, half maximal inhibitory concentration (IC50); KB 3.1, MTT. The protocol:
as §1

The subject of series [23] is A431 human squamous cancer cells. Kind of series: Cytotoxicity, MTT method. The note with it: read-out: Cytotoxicity, half maximal inhibitory concentration (IC50); A431, MTT. The protocol:
as §1

In series [24] the test system is Co. truncatum and Cu. lunata. On the set-up: method as in PMID 29677644. The note with it: cited from earlier work.
Series [25] has as its system PC-3 prostate cancer cells. The arrangement: method as in PMID 31433962. The note with it: cited from earlier work.
Setting [26] is: human, A431 squamous cancer cells.
[27] abbreviates: human, KB 3.1 endocervical adenocarcinoma cells.
Setting [28] is: human, MCF-7 breast cancer cells.
The mark [29] stands for this setting: human, PC-3 prostate cancer cells.
Where [30] appears, read: human, SK-OV-3 ovary cancer cells.

With `CCCC(=O)O[C@H]1c2cc(C)cc(O)c2C(=O)C2=C(O)[C@H]3C=C[C@]21Cc1cc(O)c2c(c13)O[C@@](C(=O)OC)([C@@H]1CCC(=O)O1)CC2=O` [Compound 6, Xanthoquinodin B14], the MIC was 4.2 µg/mL (≈ 6.52 µM) in series [1], 8.3 µg/mL (≈ 12.9 µM) in series [2], 4.2 µg/mL (≈ 6.52 µM) in [3] and 66.7 µg/mL (≈ 103 µM) in [4]. In addition, the “Minimum inhibitory concentration (MIC)” value in series [5], in [6], in [7], in series [8], in series [11] and in [12] was “–” each time. The “Minimum inhibitory concentration (MIC)” value in [13] and in series [14] was “–” each time. For the same molecule, the IC50 in [9] was 1030 to 18600 nM; in series [10] (setting [26]), 3.11 µM; in series [10] (human, A549 lung cancer cells) it was 18.6 µM; in series [10] (setting [27]), 3.42 µM; in [10] (setting [28]), 1.1 µM; in series [10] (setting [29]) it was 5.43 µM. For the same molecule, the IC50 amounted to 3.88 µM in series [10] (setting [30]) and 10.6 µM in series [10] (mouse, L929 fibroblasts).
`CCCC(=O)O[C@H]1c2cc(C)cc(O)c2C(=O)C2=C(O)[C@H]3C=C[C@]21Cc1cc(O)c2c(c13)O[C@@](C(=O)OC)([C@@H](O)CCC(=O)O)CC2=O` [Compound 7, Xanthoquinodin B15]: the MIC in series [1] came to 4.2 µg/mL (≈ 6.34 µM); in series [2] it was 4.2 µg/mL (≈ 6.34 µM); in [3], 8.3 µg/mL (≈ 12.5 µM); in series [4], 66.7 µg/mL (≈ 101 µM). Further, the “Minimum inhibitory concentration (MIC)” value in [5], in [6], in series [7], in [8], in series [11] and in series [12] was “–” each time. Further, the “Minimum inhibitory concentration (MIC)” value in [13] and in [14] was “–” each time. Moreover, the IC50 in [9] was 1030 to 18600 nM; in series [10] (setting [26]), 2.87 µM; in series [10] (human, A549 lung cancer cells), 11.5 µM; in series [10] (setting [27]), 3.47 µM; in series [10] (setting [28]) it was 1.03 µM; in series [10] (setting [29]), 4.98 µM. Further, the IC50 in series [10] (setting [30]) was found to be 3.93 µM; in [10] (mouse, L929 fibroblasts) it was 9.97 µM.
`COC(=O)[C@]12Oc3c(c(O)cc4c3[C@@H]3C=C[C@]5(C4)C(=C(O)c4c(O)cc(C)cc4[C@@H]5O)C3=O)C(=O)C1=C(O)CC[C@@H]2O` [Compound 8, Xanthoquinodin B4]: the MIC worked out at 2.1 µg/mL (≈ 3.66 µM) in series [1], 8.3 µg/mL (≈ 14.4 µM) in series [2], 8.3 µg/mL (≈ 14.4 µM) in series [3] and 66.7 µg/mL (≈ 116 µM) in series [14] (read-out: Minimum inhibitory concentration (MIC)). The “Minimum inhibitory concentration (MIC)” value in [4], in [5], in [6], in [7], in series [8] and in [11] was “–” each time. Besides, the “Minimum inhibitory concentration (MIC)” value in series [12] and in series [13] was “–” in each case. Besides, in [15], the “Cytotoxicity compared with other xanthoquinodins (in words)” value is “stronger cytotoxicity”. Moreover, the IC50 in series [9] is 100 to 4700 nM; in series [10] (setting [26]) it was 0.16 µM; in [10] (human, A549 lung cancer cells), 1.22 µM; in series [10] (setting [27]), 1.06 µM; in series [10] (setting [28]) it was 0.1 µM; in series [10] (setting [29]) it was 3.14 µM. Also, the IC50 came to 0.47 µM in series [10] (setting [30]) and 4.7 µM in [10] (mouse, L929 fibroblasts). Moreover, in series [16], the “Antifungal effects (in words)” value is on record as “significant antifungal effects”.
Take `C/C(=C\c1csc(C)n1)[C@@H]1C[C@@H]2O[C@]2(C)CCC[C@H](C)[C@H](O)[C@@H](C)C(=O)C(C)(C)[C@@H](O)CC(=O)O1` [epothilon B, reference compound]: the IC50 stood at 0.09 nM in series [17]; 0.51 nM in series [18]; 0.07 nM in [19]; 0.03 nM in [20]; 0.09 nM in [21]; 0.03 nM in series [22]. Also, in [23], the IC50 came to 0.05 nM.
Turning to `COC(=O)[C@]12Oc3cc4c(c(O)c3C(=O)C1=C(O)CC[C@@H]2O)[C@@H]1C=C[C@]2(C4)C(=C(O)c3c(O)cc(C)cc3[C@@H]2O)C1=O` [xanthoquinodin A6], in [15], the “Cytotoxicity compared with other xanthoquinodins (in words)” value is “stronger cytotoxicity”. Moreover, in series [24], the “Antifungal effects (in words)” value is “significant antifungal effects”.
Take `COC(=O)[C@@]12Oc3c(c(O)cc4c3[C@@H]3C=C[C@]5(C4)C(=C(O)c4c(O)cc(C)cc4[C@@H]5O)C3=O)C(=O)C1=C(O)CC[C@@H]2O` [xanthoquinodin B5]: the “Cytotoxicity compared with other xanthoquinodins (in words)” value in [15] was “stronger cytotoxicity”. For the same molecule, the “Antifungal effects (in words)” value in [16] is “significant antifungal effects”.
For ketoxanthoquinodin A6, the “Antifungal effects (in words)” value in series [24] is on record as “significant antifungal effects”.
As to xanthoquinodin JBIR-99, in series [25], the “Antiproliferative activity (in words)” value is listed as “high selective antiproliferative activity”.
